Source: US11572590B2, “Methods for evaluating tumor cell spheroids using 3D microfluidic cell culture device” (Dana-Farber Cancer Institute, Inc., priority 2017, dated 2023)
Where two headings read alike, the source gives them in different places.

Legend:
Test in all cases: SelectScreen Kinase Profiling, single point inhibition and IC50 for off-target kinases
Assay type in all cases: biochemical
off-target kinases [1] = biological target: off-target kinases (Homo sapiens, UniProt P16234, T674I); details: PDGFRA T674I, mutant y, ZLYTE, ATP Km app
off-target kinases [2] = biological target: off-target kinases (Homo sapiens, UniProt Q8N568); details: DCAMKL2 (DCK2), ZLYTE, ATP Km app
off-target kinases [3] = biological target: off-target kinases (Homo sapiens, UniProt P06241)
off-target kinases [4] = biological target: T1, off-target kinases (Homo sapiens, UniProt P15735); details: PHKG2, ATP Km app, ZLYTE
T1 sequence (P15735 1-406): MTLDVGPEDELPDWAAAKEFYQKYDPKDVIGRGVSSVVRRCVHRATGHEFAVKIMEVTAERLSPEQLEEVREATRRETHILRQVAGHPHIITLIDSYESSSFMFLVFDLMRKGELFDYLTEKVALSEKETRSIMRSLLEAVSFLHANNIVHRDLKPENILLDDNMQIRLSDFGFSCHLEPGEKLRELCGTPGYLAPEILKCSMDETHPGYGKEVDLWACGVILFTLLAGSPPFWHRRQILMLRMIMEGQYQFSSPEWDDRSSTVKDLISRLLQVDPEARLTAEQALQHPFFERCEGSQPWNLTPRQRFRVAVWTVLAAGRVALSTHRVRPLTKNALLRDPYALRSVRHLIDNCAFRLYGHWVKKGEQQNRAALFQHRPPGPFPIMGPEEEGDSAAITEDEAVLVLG

off-target kinases [5] = biological target: T2, off-target kinases (Homo sapiens, UniProt Q8TD19); details: NEK9, ATP Km app, ZLYTE
T2 sequence (Q8TD19 1-979): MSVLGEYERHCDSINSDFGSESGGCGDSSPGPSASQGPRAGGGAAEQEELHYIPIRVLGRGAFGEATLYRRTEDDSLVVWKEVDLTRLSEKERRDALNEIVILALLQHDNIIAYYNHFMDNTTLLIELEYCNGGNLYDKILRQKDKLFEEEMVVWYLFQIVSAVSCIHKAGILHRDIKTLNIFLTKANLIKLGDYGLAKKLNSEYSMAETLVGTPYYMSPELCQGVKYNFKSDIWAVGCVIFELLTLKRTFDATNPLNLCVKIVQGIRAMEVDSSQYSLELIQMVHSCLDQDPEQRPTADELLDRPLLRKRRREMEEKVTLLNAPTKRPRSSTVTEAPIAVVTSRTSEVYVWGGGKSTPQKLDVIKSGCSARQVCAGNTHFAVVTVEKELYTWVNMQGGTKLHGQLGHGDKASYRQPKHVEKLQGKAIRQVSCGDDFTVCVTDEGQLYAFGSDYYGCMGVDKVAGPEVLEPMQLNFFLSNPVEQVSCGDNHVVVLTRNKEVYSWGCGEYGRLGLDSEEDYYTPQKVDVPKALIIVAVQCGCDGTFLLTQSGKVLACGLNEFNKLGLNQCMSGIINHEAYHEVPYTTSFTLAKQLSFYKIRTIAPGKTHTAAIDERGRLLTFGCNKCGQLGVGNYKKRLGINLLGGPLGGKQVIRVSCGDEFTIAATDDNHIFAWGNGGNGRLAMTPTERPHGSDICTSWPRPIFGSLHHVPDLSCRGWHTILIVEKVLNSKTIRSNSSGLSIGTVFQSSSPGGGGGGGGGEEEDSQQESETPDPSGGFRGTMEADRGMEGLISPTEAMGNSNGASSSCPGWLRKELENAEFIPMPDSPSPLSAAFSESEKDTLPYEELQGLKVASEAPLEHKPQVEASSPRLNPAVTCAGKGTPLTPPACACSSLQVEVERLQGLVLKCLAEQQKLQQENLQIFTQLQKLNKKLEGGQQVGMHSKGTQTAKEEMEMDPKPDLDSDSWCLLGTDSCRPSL

off-target kinases (Homo sapiens, UniProt P16234, T674I), sequence (P16234 24-1089 T674I): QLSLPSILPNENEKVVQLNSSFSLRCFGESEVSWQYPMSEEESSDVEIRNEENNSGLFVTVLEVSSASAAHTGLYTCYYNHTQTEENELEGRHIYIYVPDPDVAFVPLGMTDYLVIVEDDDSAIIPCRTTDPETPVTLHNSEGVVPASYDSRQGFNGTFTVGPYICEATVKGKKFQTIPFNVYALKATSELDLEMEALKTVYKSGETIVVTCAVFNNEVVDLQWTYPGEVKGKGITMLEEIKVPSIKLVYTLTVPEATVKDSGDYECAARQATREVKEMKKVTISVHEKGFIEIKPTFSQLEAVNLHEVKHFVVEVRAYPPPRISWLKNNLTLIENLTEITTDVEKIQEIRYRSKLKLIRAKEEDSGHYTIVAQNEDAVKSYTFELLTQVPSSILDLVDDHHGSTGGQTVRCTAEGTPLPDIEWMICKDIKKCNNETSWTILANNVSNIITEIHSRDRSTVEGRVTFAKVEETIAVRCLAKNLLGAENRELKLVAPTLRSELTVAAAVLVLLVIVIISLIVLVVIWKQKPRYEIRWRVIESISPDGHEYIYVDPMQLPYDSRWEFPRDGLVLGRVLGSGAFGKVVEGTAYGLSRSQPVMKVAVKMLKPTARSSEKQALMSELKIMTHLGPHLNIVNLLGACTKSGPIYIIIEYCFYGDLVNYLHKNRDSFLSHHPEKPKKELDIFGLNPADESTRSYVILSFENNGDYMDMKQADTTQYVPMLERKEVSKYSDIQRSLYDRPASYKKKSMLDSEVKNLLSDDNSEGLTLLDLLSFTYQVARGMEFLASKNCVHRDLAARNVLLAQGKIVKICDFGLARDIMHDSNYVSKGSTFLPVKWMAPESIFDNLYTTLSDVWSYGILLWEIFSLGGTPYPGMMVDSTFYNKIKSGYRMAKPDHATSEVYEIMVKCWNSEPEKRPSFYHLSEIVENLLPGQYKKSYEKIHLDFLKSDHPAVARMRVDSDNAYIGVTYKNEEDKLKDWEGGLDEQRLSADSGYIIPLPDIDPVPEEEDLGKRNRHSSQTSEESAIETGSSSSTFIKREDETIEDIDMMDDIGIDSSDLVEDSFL
off-target kinases (Homo sapiens, UniProt Q8N568), sequence (Q8N568 whole entry): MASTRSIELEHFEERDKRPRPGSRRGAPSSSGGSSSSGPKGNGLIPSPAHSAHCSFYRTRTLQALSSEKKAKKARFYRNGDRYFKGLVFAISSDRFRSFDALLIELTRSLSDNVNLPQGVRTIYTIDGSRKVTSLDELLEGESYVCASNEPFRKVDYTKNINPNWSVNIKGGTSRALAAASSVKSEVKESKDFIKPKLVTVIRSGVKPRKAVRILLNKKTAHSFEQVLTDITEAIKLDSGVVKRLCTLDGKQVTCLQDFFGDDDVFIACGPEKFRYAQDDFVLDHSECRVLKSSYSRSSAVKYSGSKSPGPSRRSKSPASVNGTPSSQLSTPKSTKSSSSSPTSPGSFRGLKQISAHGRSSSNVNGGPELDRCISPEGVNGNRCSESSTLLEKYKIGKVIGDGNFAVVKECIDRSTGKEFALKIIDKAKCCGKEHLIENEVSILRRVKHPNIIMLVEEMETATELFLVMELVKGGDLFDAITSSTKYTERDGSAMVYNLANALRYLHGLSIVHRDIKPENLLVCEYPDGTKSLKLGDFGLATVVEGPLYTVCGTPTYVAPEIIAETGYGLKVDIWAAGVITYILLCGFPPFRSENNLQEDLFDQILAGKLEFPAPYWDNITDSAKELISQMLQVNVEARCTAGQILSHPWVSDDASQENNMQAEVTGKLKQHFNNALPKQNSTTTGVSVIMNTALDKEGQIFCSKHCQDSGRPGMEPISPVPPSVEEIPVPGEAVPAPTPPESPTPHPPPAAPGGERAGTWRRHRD
off-target kinases (Homo sapiens, UniProt P06241), sequence (P06241 whole entry): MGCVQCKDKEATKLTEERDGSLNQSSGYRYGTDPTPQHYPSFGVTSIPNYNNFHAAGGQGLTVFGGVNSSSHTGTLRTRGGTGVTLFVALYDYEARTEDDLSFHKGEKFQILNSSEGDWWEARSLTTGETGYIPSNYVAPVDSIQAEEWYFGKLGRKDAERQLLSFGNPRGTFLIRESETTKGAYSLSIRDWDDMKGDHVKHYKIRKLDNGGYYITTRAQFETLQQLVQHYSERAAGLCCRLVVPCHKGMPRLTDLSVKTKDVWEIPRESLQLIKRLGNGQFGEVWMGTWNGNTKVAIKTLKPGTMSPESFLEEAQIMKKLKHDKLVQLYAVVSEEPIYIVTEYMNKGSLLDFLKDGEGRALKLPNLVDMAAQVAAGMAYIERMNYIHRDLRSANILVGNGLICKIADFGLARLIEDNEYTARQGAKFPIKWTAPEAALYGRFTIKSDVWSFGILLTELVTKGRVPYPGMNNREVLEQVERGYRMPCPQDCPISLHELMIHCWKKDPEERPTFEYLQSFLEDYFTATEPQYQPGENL

N#Cc1cc(-c2ncnc(Nc3ccc(N4CCN(C5COC5)CC4)cc3)n2)ccc1OC1CCOCC1 [Compound 1, 5-(4-((4-(4-(oxetan-3-yl)piperazin-1-yl)phenyl)amino)-1,3,5-triazin-2-yl)-2-((tetrahydro-2H-pyran-4-yl)oxy)benzonitrile]
inhibition (off-target kinases [1]; read-out: % Inhibition 1): 40% | inhibition (off-target kinases [1]; read-out: % Inhibition 2): 32% | inhibition (off-target kinases [1]; read-out: % Inhibition Avg): 36% | inhibition (off-target kinases [2]; read-out: % Inhibition 1): 11% | inhibition (off-target kinases [2]; read-out: % Inhibition 2): 3% | inhibition (off-target kinases [2]; read-out: % Inhibition Avg): 7% | inhibition (off-target kinases [3]; FYN A, LanthaScreen Binding, read-out: % Inhibition Avg): 18% | inhibition (off-target kinases [3]; FYN, ATP Km app, ZLYTE, read-out: % Inhibition 1): 85% | inhibition (off-target kinases [3]; FYN, ATP Km app, ZLYTE, read-out: % Inhibition 2): 85% | inhibition (off-target kinases [3]; FYN, ATP Km app, ZLYTE, read-out: % Inhibition Avg): 85% | inhibition (off-target kinases [4]; read-out: % Inhibition 1): 83% | inhibition (off-target kinases [4]; read-out: % Inhibition 2): 79% | inhibition (off-target kinases [4]; read-out: % Inhibition Avg): 81% | inhibition (off-target kinases [5]; read-out: % Inhibition 1): 46% | inhibition (off-target kinases [5]; read-out: % Inhibition 2): 45% | inhibition (off-target kinases [5]; read-out: % Inhibition Avg): 46%
